Tested on: Hedgehog pathway activation (GLi-luciferase reporter) in Shh Light II reporter cells
Test: Hedgehog pathway activation on Shh Light II reporter cells measured by luciferase activity
Assay type: cell-based
Conditions: Mus musculus, Shh Light II, hShh activation, read-out: Shh (IC50, inhibition of Hedgehog pathway activation)
How it was run: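 Shh Light II reporter cells carrying a hedgehog-responsive GLi-luciferase reporter were stimulated either with 500 nM SAG, a direct Smoothened agonist, or with conditioned media containing human Sonic Hedgehog (hShh). Test compounds were evaluated for blocking this pathway activation, quantified by luciferase activity. Cell viability was monitored in parallel with the Celltiter-Blue® assay.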

Row | SMILES | IC50 [nM]
1 | CC(=O)c1cccc(-c2ccc3nc(-c4ccc(C)c(NC(=O)C(C)(C)C)c4)cn3n2)c1 [compound 527] | 1050
2 | Cc1ccc(-c2cn3nc(-c4cccc(C(F)(F)F)n4)ccc3n2)cc1NC(=O)C(C)(C)C [Example 458, N-(2-methyl-5-(6-(6-(trifluoromethyl)pyridin-2-yl)imidazo[1,2-b]pyridazin-2-yl)phenyl)pivalamide] | 421
3 | Cc1noc(C)c1-c1ccc2nc(-c3ccc(C(F)(F)F)c(NC(=O)C(C)(C)C)c3)cn2n1 [Example 326, N-(5-(6-(3,5-dimethylisoxazol-4-yl)imidazo[1,2-b]pyridazin-2-yl)-2-(trifluoromethyl)phenyl)pivalamide] | 217
4 | Cc1ccc(-c2cn3nc(-c4cccnc4C#N)ccc3n2)cc1NC(=O)C(C)(C)C [compound 581, N-(5-(6-(2-cyanopyridin-3-yl)imidazo[1,2-b]pyridazin-2-yl)-2-methylphenyl)pivalamide] | 82
5 | CCN1CCN(c2ccc3nc(-c4ccc(C(F)(F)F)c(NC(=O)C(C)(C)C)c4)cn3n2)CC1 [Example 317, N-(5-(6-(4-ethylpiperazin-1-yl)imidazo[1,2-b]pyridazin-2-yl)-2-(trifluoromethyl)phenyl)pivalamide] | 1250
6 | Cc1ccc(-c2cn3nc(N4CCC(NCCCCCC(=O)NO)C4)ccc3n2)cc1NC(=O)C(C)(C)C (centres unmarked) [Example 418, N-hydroxy-6-(1-(2-(4-methyl-3-pivalamidophenyl)imidazo[1,2-b]pyridazin-6-yl)pyrrolidin-3-ylamino)hexanamide] | 1390
7 | CC(C)(C)C(=O)Nc1cc(-c2cn3nc(NC4CCNCC4)ccc3n2)ccc1C(F)(F)F [Example 330, N-(5-(6-(piperidin-4-ylamino)imidazo[1,2-b]pyridazin-2-yl)-2-(trifluoromethyl)phenyl)pivalamide] | 676
8 | Cc1ccc(-c2cn3nc(Cl)ccc3n2)cc1NC(=O)C1(C)CC1 [compound 517] | > 10000
9 | CC(=O)Nc1ncc(-c2ccc3nc(-c4ccc(C)c(NC(=O)C(C)(C)C)c4)cn3n2)s1 [Example 447, N-(5-(6-(2-acetamidothiazol-5-yl)imidazo[1,2-b]pyridazin-2-yl)-2-methylphenyl)pivalamide] | 293
10 | Cc1ccc(-c2nc3ccc(-c4ccc(C(F)(F)F)nc4)nn3c2C)cc1NC(=O)C(C)(C)C [Example 339, N-(2-methyl-5-(3-methyl-6-(6-(trifluoromethyl)pyridin-3-yl)imidazo[1,2-b]pyridazin-2-yl)phenyl)pivalamide] | 277
11 | COC(=O)c1csc(-c2ccc3nc(-c4ccc(C)c(NC(=O)C(C)(C)C)c4)cn3n2)n1 [Example 446, methyl 2-(2-(4-methyl-3-pivalamidophenyl)imidazo[1,2-b]pyridazin-6-yl)thiazole-4-carboxylate] | 1380
12 | COC(=O)c1ccc(-c2ccc3nc(-c4ccc(C)c(NC(=O)C(C)(C)C)c4)cn3n2)cc1 [compound 582] | 1140
13 | Cc1ccc(-c2cn3nc(-c4ccc(O)nc4)ccc3n2)cc1NC(=O)C(C)(C)C [Example 404, N-(5-(6-(6-hydroxypyridin-3-yl)imidazo[1,2-b]pyridazin-2-yl)-2-methylphenyl)pivalamide] | 873
14 | Cc1ccc(-c2cn3nc(-c4ccc(O)cc4C(F)(F)F)ccc3n2)cc1NC(=O)C(C)(C)C [Example 409, N-(5-(6-(4-hydroxy-2-(trifluoromethyl)phenyl)imidazo[1,2-b]pyridazin-2-yl)-2-methylphenyl)pivalamide] | 236
15 | Cc1ccc(-c2cn3nc(-c4c(C)nn(C)c4C)ccc3n2)cc1NC(=O)C(C)(C)C [compound 503] | 330
16 | COC(=O)CCCCC(=O)Nc1ccc(-c2ccc3nc(-c4ccc(C)c(NC(=O)C(C)(C)C)c4)cn3n2)c(C(F)(F)F)c1 [compound 510] | 379
17 | CCOC(=O)C=Cc1cccc(-c2ccc3nc(-c4ccc(C)c(NC(=O)C(C)(C)C)c4)cn3n2)c1 [compound 551] | 364

Reference: US8871767B2, “2-arylimidazo[1,2-B]pyridazine, 2-phenylimidazo[1,2-A]pyridine, and 2-phenylimidazo[1,2-A]pyrazine derivatives” (Hengrui (USA) Ltd., priority 2010, dated 2014)
